In ChEMBL document CHEMBL4804284:

Legend:
Design in all cases: scale not given: the % may be the effect or the level left
[1] = molecular target: Mitogen-activated protein kinase kinase kinase kinase 1 (Homo sapiens) (UniProt Q92918); assay: Inhibition of DNA-tagged human HPK1 assessed as percent of control at 50000 nM by qPCR analysis relative to control
[2] = molecular target: Tyrosine-protein kinase HCK (Homo sapiens) (UniProt P08631); assay: Inhibition of DNA-tagged human HCK assessed as percent of control at 50000 nM by qPCR analysis relative to control
Sequence of Tyrosine-protein kinase HCK (Homo sapiens) (P08631 2-526 limits assumed): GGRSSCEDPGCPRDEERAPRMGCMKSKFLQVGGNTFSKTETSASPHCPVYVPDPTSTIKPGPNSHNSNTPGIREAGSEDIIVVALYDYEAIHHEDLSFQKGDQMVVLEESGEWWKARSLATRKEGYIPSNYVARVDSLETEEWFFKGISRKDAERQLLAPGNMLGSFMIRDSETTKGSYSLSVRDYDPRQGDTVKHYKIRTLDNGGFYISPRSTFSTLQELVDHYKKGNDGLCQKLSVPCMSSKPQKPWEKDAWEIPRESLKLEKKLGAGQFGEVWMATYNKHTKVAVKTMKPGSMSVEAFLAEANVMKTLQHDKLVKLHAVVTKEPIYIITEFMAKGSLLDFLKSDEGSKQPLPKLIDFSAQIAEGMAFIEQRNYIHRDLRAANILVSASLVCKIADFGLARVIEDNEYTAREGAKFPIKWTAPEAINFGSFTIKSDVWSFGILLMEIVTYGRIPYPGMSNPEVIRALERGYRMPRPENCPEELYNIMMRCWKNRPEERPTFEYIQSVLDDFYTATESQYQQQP

[3] = molecular target: Mitogen-activated protein kinase 1 (Homo sapiens) (UniProt P28482); assay: Inhibition of DNA-tagged human ERK2 assessed as percent of control at 50000 nM by qPCR analysis relative to control
[4] = molecular target: Ephrin type-B receptor 3 (Homo sapiens) (UniProt P54753); assay: Inhibition of DNA-tagged human EPHB3 assessed as percent of control at 50000 nM by qPCR analysis relative to control
[5] = molecular target: Ephrin type-A receptor 6 (Homo sapiens) (UniProt Q9UF33); assay: Inhibition of DNA-tagged human EPHA6 assessed as percent of control at 50000 nM by qPCR analysis relative to control
[6] = molecular target: Ephrin type-A receptor 5 (Homo sapiens) (UniProt P54756); assay: Inhibition of DNA-tagged human EPHA5 assessed as percent of control at 50000 nM by qPCR analysis relative to control
[7] = molecular target: Epidermal growth factor receptor (Homo sapiens) (UniProt P00533); assay: Inhibition of DNA-tagged human EGFR assessed as percent of control at 50000 nM by qPCR analysis relative to control
[8] = molecular target: Casein kinase I isoform gamma-1 (Homo sapiens) (UniProt Q9HCP0); assay: Inhibition of DNA-tagged human CSNK1G1 assessed as percent of control at 50000 nM by qPCR analysis relative to control
[9] = molecular target: Casein kinase I isoform epsilon (Homo sapiens) (UniProt P49674); assay: Inhibition of DNA-tagged human CSNK1E assessed as percent of control at 50000 nM by qPCR analysis relative to control
[10] = molecular target: Calcium/calmodulin-dependent protein kinase kinase 1 (Homo sapiens) (UniProt Q8N5S9); assay: Inhibition of DNA-tagged human CAMKK1 assessed as percent of control at 50000 nM by qPCR analysis relative to control
[11] = molecular target: Calcium/calmodulin-dependent protein kinase type IV (Homo sapiens) (UniProt Q16566); assay: Inhibition of DNA-tagged human CAMK4 assessed as percent of control at 50000 nM by qPCR analysis relative to control
[12] = molecular target: Protein-tyrosine kinase 6 (Homo sapiens) (UniProt Q13882); assay: Inhibition of DNA-tagged human BRK assessed as percent of control at 50000 nM by qPCR analysis relative to control
[13] = molecular target: Activin receptor type-1 (Homo sapiens) (UniProt Q04771); assay: Inhibition of DNA-tagged human ACVR1 assessed as percent of control at 50000 nM by qPCR analysis relative to control
Sequence of Activin receptor type-1 (Homo sapiens) (Q04771 whole entry): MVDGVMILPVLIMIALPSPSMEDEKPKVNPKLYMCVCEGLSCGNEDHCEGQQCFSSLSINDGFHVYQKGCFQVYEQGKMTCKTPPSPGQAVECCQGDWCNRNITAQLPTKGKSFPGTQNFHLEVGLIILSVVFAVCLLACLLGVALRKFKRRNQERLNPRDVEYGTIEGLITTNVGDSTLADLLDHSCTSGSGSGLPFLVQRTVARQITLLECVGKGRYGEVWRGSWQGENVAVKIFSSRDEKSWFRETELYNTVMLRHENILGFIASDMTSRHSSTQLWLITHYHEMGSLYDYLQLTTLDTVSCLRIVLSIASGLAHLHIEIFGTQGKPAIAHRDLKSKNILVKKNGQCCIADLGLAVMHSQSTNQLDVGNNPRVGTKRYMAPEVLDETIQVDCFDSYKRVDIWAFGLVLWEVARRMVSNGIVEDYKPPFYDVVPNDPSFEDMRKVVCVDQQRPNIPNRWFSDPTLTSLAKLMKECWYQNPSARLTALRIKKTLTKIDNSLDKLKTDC

[14] = tested on: Tyrosine-protein kinase ABL1 (Homo sapiens), P00519 [T315I]; assay: Inhibition of DNA-tagged non-phosphorylated human ABL1 T315I mutant assessed as percent of control at 50000 nM by qPCR analysis relative to control
[15] = tested on: Mast/stem cell growth factor receptor Kit (Homo sapiens), P10721 [V559D,V654A]; assay: Inhibition of DNA-tagged human KIT V559D/V654A double mutant assessed as percent of control at 50000 nM by qPCR analysis relative to control
[16] = molecular target: Mitogen-activated protein kinase kinase kinase 3 (Homo sapiens) (UniProt Q99759); assay: Inhibition of DNA-tagged human MAP3K3 assessed as percent of control at 50000 nM by qPCR analysis relative to control
Sequence of Mitogen-activated protein kinase kinase kinase 3 (Homo sapiens) (Q99759 whole entry): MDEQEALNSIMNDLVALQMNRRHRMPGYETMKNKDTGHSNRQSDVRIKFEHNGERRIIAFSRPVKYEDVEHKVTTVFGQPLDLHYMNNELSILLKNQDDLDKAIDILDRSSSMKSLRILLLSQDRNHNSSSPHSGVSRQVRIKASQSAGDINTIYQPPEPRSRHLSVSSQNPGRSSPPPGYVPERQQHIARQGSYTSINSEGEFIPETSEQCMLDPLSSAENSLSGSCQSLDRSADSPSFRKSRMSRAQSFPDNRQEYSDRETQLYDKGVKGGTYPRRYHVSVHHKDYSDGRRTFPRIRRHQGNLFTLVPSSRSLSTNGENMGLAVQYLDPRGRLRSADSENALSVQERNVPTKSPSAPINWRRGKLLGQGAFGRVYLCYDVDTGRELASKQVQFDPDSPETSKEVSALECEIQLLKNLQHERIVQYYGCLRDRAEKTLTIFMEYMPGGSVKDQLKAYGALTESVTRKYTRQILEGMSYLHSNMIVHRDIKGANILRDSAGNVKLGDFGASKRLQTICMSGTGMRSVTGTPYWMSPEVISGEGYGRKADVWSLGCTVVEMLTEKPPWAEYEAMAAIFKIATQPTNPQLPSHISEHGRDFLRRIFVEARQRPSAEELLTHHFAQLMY

[17] = tested on: Hepatocyte growth factor receptor (Homo sapiens), P08581 [Y1235D]; assay: Inhibition of DNA-tagged human MET Y1235D mutant assessed as percent of control at 50000 nM by qPCR analysis relative to control
[18] = molecular target: Serine/threonine-protein kinase 3 (Homo sapiens) (UniProt Q13188); assay: Inhibition of DNA-tagged human MST2 assessed as percent of control at 50000 nM by qPCR analysis relative to control
Sequence of Serine/threonine-protein kinase 3 (Homo sapiens) (Q13188 whole entry): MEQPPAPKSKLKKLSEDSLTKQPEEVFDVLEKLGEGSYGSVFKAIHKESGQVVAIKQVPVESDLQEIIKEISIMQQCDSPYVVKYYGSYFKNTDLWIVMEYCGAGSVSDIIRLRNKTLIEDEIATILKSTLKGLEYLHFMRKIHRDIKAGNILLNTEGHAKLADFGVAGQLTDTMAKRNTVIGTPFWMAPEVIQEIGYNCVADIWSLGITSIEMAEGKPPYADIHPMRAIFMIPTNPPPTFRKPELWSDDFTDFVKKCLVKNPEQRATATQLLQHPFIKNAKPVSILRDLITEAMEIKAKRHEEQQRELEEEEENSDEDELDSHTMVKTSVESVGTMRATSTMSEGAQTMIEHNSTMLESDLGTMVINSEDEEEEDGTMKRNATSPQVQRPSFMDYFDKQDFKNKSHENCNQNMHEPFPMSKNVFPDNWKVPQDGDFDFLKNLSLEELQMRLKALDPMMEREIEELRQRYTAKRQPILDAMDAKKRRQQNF

[19] = molecular target: Serine/threonine-protein kinase mTOR (Homo sapiens) (UniProt P42345); assay: Inhibition of DNA-tagged human MTOR assessed as percent of control at 50000 nM by qPCR analysis relative to control
[20] = molecular target: Myosin light chain kinase family member 4 (Homo sapiens) (UniProt Q86YV6); assay: Inhibition of DNA-tagged human MYLK4 assessed as percent of control at 50000 nM by qPCR analysis relative to control
[21] = molecular target: Cyclin-dependent kinase 14 (Homo sapiens) (UniProt O94921); assay: Inhibition of DNA-tagged human PFTK1 assessed as percent of control at 50000 nM by qPCR analysis relative to control
[22] = molecular target: Phosphorylase b kinase gamma catalytic chain, liver/testis isoform (Homo sapiens) (UniProt P15735); assay: Inhibition of DNA-tagged human PHKG2 assessed as percent of control at 50000 nM by qPCR analysis relative to control
[23] = molecular target: Phosphatidylinositol 4-phosphate 5-kinase type-1 gamma (Homo sapiens) (UniProt O60331); assay: Inhibition of DNA-tagged human PIP5K1C assessed as percent of control at 50000 nM by qPCR analysis relative to control
[24] = molecular target: Serine/threonine-protein kinase D3 (Homo sapiens) (UniProt O94806); assay: Inhibition of DNA-tagged human PRKD3 assessed as percent of control at 50000 nM by qPCR analysis relative to control
[25] = molecular target: cAMP-dependent protein kinase catalytic subunit PRKX (Homo sapiens) (UniProt P51817); assay: Inhibition of DNA-tagged human PRKX assessed as percent of control at 50000 nM by qPCR analysis relative to control
[26] = molecular target: Proto-oncogene tyrosine-protein kinase ROS (Homo sapiens) (UniProt P08922); assay: Inhibition of DNA-tagged human ROS1 assessed as percent of control at 50000 nM by qPCR analysis relative to control
Sequence of Proto-oncogene tyrosine-protein kinase ROS (Homo sapiens) (P08922 whole entry, the tested form may be a part): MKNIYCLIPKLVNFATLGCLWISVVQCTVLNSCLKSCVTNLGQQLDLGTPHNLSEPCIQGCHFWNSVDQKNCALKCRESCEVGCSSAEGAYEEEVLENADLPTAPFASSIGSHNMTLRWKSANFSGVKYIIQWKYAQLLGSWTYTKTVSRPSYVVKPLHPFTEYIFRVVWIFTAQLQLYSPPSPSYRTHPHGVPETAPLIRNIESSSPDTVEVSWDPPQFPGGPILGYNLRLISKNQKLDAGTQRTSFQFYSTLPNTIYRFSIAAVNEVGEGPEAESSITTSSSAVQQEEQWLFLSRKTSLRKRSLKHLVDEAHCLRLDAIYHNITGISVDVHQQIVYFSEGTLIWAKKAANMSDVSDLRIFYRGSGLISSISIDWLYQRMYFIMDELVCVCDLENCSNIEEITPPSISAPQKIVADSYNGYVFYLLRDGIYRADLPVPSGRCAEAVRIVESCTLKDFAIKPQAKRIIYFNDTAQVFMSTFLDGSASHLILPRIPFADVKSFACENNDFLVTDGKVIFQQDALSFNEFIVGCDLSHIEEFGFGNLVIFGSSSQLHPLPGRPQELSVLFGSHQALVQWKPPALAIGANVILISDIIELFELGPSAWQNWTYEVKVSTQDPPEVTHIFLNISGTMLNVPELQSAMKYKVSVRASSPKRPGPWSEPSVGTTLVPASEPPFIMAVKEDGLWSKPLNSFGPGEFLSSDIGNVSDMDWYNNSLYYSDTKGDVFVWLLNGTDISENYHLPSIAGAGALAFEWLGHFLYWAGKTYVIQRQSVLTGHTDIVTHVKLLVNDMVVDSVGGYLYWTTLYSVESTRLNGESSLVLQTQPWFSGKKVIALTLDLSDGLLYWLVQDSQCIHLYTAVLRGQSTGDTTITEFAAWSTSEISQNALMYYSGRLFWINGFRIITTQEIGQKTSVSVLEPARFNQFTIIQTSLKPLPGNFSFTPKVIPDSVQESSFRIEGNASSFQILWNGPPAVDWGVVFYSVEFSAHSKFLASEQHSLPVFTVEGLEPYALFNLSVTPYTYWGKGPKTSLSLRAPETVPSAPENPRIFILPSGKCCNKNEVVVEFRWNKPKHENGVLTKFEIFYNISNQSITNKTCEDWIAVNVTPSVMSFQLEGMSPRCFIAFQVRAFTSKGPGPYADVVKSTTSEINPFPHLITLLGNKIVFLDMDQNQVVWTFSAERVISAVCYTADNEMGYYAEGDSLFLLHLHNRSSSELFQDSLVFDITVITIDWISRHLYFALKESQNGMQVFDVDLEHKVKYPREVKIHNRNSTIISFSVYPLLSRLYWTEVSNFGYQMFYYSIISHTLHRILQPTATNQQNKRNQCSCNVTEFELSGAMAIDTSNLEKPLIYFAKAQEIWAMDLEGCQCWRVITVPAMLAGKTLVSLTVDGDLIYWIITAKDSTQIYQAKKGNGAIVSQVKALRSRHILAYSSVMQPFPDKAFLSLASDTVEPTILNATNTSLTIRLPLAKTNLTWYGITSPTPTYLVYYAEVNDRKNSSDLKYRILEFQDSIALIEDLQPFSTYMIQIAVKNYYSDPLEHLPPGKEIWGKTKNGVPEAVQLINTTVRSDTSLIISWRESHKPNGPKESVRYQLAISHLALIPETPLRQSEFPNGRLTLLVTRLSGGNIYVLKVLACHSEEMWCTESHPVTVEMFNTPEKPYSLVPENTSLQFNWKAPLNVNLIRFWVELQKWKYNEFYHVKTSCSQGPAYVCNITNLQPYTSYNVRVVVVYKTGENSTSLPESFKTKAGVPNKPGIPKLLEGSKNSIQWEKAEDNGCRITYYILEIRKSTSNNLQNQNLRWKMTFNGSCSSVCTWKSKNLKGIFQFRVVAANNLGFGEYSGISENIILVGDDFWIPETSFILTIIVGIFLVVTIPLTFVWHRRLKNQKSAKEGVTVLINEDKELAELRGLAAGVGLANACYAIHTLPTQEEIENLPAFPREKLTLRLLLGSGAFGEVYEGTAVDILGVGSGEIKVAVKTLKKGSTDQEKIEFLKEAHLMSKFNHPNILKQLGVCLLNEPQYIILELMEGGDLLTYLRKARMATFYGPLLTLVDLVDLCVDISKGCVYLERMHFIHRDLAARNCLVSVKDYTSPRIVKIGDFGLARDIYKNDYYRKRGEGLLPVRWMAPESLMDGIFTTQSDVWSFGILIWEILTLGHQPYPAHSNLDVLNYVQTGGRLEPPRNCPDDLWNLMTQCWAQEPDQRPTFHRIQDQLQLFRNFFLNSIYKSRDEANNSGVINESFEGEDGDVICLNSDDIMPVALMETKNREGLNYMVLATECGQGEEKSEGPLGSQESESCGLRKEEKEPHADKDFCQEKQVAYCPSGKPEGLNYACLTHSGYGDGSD

[27] = molecular target: Ribosomal protein S6 kinase alpha-1 (Homo sapiens) (UniProt Q15418); assay: Inhibition of DNA-tagged human N-terminal RSK1 kinase domain 1 assessed as percent of control at 50000 nM by qPCR analysis relative to control
[28] = molecular target: STE20/SPS1-related proline-alanine-rich protein kinase (Homo sapiens) (UniProt Q9UEW8); assay: Inhibition of DNA-tagged human STK39 assessed as percent of control at 50000 nM by qPCR analysis relative to control
[29] = molecular target: Angiopoietin-1 receptor (Homo sapiens) (UniProt Q02763); assay: Inhibition of DNA-tagged human TIE2 assessed as percent of control at 50000 nM by qPCR analysis relative to control
[30] = molecular target: Wee1-like protein kinase 2 (Homo sapiens) (UniProt P0C1S8); assay: Inhibition of DNA-tagged human WEE2 assessed as percent of control at 50000 nM by qPCR analysis relative to control
Sequence of Wee1-like protein kinase 2 (Homo sapiens) (P0C1S8 whole entry, looked up): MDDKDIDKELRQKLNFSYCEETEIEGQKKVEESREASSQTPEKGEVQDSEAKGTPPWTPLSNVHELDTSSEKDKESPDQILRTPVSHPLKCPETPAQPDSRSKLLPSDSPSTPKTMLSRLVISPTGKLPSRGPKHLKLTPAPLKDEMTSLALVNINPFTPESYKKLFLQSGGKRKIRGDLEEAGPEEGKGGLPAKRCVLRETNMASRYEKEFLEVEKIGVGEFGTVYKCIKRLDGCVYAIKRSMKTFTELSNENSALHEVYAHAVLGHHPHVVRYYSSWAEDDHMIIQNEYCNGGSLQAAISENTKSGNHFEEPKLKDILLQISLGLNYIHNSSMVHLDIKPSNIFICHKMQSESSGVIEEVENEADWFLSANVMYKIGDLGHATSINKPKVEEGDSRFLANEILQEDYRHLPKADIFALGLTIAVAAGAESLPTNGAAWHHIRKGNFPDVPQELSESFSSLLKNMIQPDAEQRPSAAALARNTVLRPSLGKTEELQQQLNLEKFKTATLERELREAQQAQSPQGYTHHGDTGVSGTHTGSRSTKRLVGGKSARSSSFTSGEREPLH

Q: With `CN1C(=O)/C(=C2/C(=O)Nc3ccccc32)c2ccccc21` as the molecule, how does the Activity [1] read?
A: The Activity was 93%.

Q: And the Activity [2]?
A: Its Activity is 100%.

Q: And the Activity [3]?
A: The Activity was 100%.

Q: What about the Activity [4] of the same molecule?
A: Its Activity is 90%.

Q: And the Activity [5]?
A: Its Activity is 95%.

Q: What about the Activity [6] of the same molecule?
A: The Activity was 96%.

Q: And the Activity [7]?
A: Its Activity is 100%.

Q: And the Activity [8]?
A: Its Activity is 95%.

Q: What about the Activity [9] of the same molecule?
A: The Activity was 91%.

Q: And the Activity [10]?
A: The Activity was 86%.

Q: And the Activity [11]?
A: Its Activity is 88%.

Q: And the Activity [12]?
A: The Activity was 100%.

Q: And the Activity [13]?
A: The Activity was 99%.

Q: And the Activity [14]?
A: Its Activity is 94%.

Q: What about the Activity [15] of the same molecule?
A: The Activity was 100%.

Q: What about the Activity [16] of the same molecule?
A: The Activity was 94%.

Q: What about the Activity [17] of the same molecule?
A: Its Activity is 99%.

Q: What about the Activity [18] of the same molecule?
A: Its Activity is 99%.

Q: And the Activity [19]?
A: The Activity was 100%.

Q: And the Activity [20]?
A: Its Activity is 87%.

Q: What about the Activity [21] of the same molecule?
A: Its Activity is 94%.

Q: What about the Activity [22] of the same molecule?
A: The Activity was 100%.

Q: And the Activity [23]?
A: The Activity was 81%.

Q: What about the Activity [24] of the same molecule?
A: The Activity was 94%.

Q: And the Activity [25]?
A: The Activity was 100%.

Q: What about the Activity [26] of the same molecule?
A: Its Activity is 81%.

Q: And the Activity [27]?
A: Its Activity is 96%.

Q: And the Activity [28]?
A: The Activity was 78%.

Q: And the Activity [29]?
A: The Activity was 100%.

Q: What about the Activity [30] of the same molecule?
A: The Activity was 95%.
